From ChEMBL document CHEMBL3885861, “Open TG-GATES”

Organism: Rattus norvegicus
Assay: Open TG-GATES - Regimen: Single
Type: toxicity, organism-based, Sprague-Dawley
Design: regimen Single, gender Male, age 6 weeks
Details: in vivo, po, 1000 mg/kg, route gavage, dose level High; for APTT / Bas / Eos / Fbg / Hb / Ht / Lym / MCH / MCHC / MCV / Mono / Neu / PT / Plat / RBC / Ret / WBC: tissue Blood; for KIDNEY_L / KIDNEY_R / KIDNEY_TOTAL: tissue Kidney; for LIVER: tissue Liver; for A/G / ALP / ALT / AST / BUN / CRE / Ca / Cl / DBIL / GLC / IP / K / LDH / Na / PL / RALB / TBIL / TC / TG / TP / gamma-GTP: tissue Plasma

O=C(O)COc1nn(Cc2ccccc2)c2ccccc12 [BENDAZAC]
TERMINAL_BW (3 h): 213.4 g | APTT (3 h): 16.9 s | Bas (3 h): 0% | Eos (3 h): 1.2% | Fbg (3 h): 207.6 mg/dL | Hb (3 h): 13.6 g/dL | Ht (3 h): 40.3% | Lym (3 h): 74% | MCH (3 h): 21.9 pg | MCHC (3 h): 33.7% | MCV (3 h): 65.1 fL | Mono (3 h): 7.8% | Neu (3 h): 16.8% | PT (3 h): 11.3 s | Plat (3 h): 130.3 x10_4/uL | RBC (3 h): 620.2 x10_4/ul | Ret (3 h): 12% | WBC (3 h): 92.8 x10_2/uL | KIDNEY_L (3 h): 1 g | KIDNEY_R (3 h): 1 g | KIDNEY_TOTAL (3 h): 2 g | LIVER (3 h): 9.7 g | A/G (3 h): 2.2 | ALP (3 h): 1482.6 IU/L | ALT (3 h): 35.2 IU/L | AST (3 h): 67.8 IU/L | BUN (3 h): 12.2 mg/dL | CRE (3 h): 0.5 mg/dL | Ca (3 h): 10.6 mg/dL | Cl (3 h): 100.2 meq/L | DBIL (3 h): 0.04 mg/dL | GLC (3 h): 195.2 mg/dL | IP (3 h): 10.1 mg/dL | K (3 h): 4.8 meq/L | LDH (3 h): 99.8 IU/L | Na (3 h): 140 meq/L | PL (3 h): 133.6 mg/dL | RALB (3 h): 3.7 g/dL | TBIL (3 h): 1.4 mg/dL | TC (3 h): 73.2 mg/dL | TG (3 h): 42.2 mg/dL | TP (3 h): 5.4 g/dL | gamma-GTP (3 h): 1.2 IU/L | TERMINAL_BW (6 h): 205.5 g | APTT (6 h): 17.1 s | Bas (6 h): 0% | Eos (6 h): 1.2% | Fbg (6 h): 215.4 mg/dL | Hb (6 h): 14 g/dL | Ht (6 h): 41.8% | Lym (6 h): 68.2% | MCH (6 h): 22.1 pg | MCHC (6 h): 33.5% | MCV (6 h): 66 fL | Mono (6 h): 8% | Neu (6 h): 23.4% | PT (6 h): 11.8 s | Plat (6 h): 126.4 x10_4/uL | RBC (6 h): 633.4 x10_4/ul | Ret (6 h): 14.3% | WBC (6 h): 86.8 x10_2/uL | KIDNEY_L (6 h): 0.9 g | KIDNEY_R (6 h): 0.9 g | KIDNEY_TOTAL (6 h): 1.9 g | LIVER (6 h): 8.6 g | A/G (6 h): 2.1 | ALP (6 h): 2888.2 IU/L | ALT (6 h): 33.8 IU/L | AST (6 h): 67.4 IU/L | BUN (6 h): 10.6 mg/dL | CRE (6 h): 0.6 mg/dL | Ca (6 h): 10.5 mg/dL | Cl (6 h): 100 meq/L | DBIL (6 h): 0.046 mg/dL | GLC (6 h): 189.8 mg/dL | IP (6 h): 10.8 mg/dL | K (6 h): 4.5 meq/L | LDH (6 h): 114.6 IU/L | Na (6 h): 141 meq/L | PL (6 h): 138 mg/dL | RALB (6 h): 3.7 g/dL | TBIL (6 h): 1.5 mg/dL | TC (6 h): 83 mg/dL | TG (6 h): 21.2 mg/dL | TP (6 h): 5.4 g/dL | gamma-GTP (6 h): 0.8 IU/L | TERMINAL_BW (9 h): 202.5 g | APTT (9 h): 17.9 s | Bas (9 h): 0% | Eos (9 h): 1% | Fbg (9 h): 213.4 mg/dL | Hb (9 h): 13.6 g/dL | Ht (9 h): 40.7% | Lym (9 h): 79.6% | MCH (9 h): 21.7 pg | MCHC (9 h): 33.5% | MCV (9 h): 64.9 fL | Mono (9 h): 7.4% | Neu (9 h): 12.2% | PT (9 h): 11.8 s | Plat (9 h): 120.8 x10_4/uL | RBC (9 h): 627.8 x10_4/ul | Ret (9 h): 8% | WBC (9 h): 71.1 x10_2/uL | KIDNEY_L (9 h): 0.9 g | KIDNEY_R (9 h): 1 g | KIDNEY_TOTAL (9 h): 1.9 g | LIVER (9 h): 7.9 g | A/G (9 h): 2.1 | ALP (9 h): 5387.2 IU/L | ALT (9 h): 28 IU/L | AST (9 h): 63.6 IU/L | BUN (9 h): 11.2 mg/dL | CRE (9 h): 0.6 mg/dL | Ca (9 h): 10.3 mg/dL | Cl (9 h): 100.8 meq/L | DBIL (9 h): 0.032 mg/dL | GLC (9 h): 177.6 mg/dL | IP (9 h): 10 mg/dL | K (9 h): 4.6 meq/L | LDH (9 h): 92.8 IU/L | Na (9 h): 141.6 meq/L | PL (9 h): 129.8 mg/dL | RALB (9 h): 3.7 g/dL | TBIL (9 h): 1.5 mg/dL | TC (9 h): 75.8 mg/dL | TG (9 h): 30.2 mg/dL | TP (9 h): 5.5 g/dL | gamma-GTP (9 h): 1 IU/L | TERMINAL_BW (24 h): 203.6 g | APTT (24 h): 16.8 s | Bas (24 h): 0% | Eos (24 h): 1.6% | Fbg (24 h): 193 mg/dL | Hb (24 h): 14 g/dL | Ht (24 h): 41.8% | Lym (24 h): 77% | MCH (24 h): 21.6 pg | MCHC (24 h): 33.4% | MCV (24 h): 64.6 fL | Mono (24 h): 6.6% | Neu (24 h): 15.2% | PT (24 h): 13.1 s | Plat (24 h): 133.3 x10_4/uL | RBC (24 h): 647.6 x10_4/ul | Ret (24 h): 10.7% | WBC (24 h): 92.1 x10_2/uL | KIDNEY_L (24 h): 1 g | KIDNEY_R (24 h): 1 g | KIDNEY_TOTAL (24 h): 1.9 g | LIVER (24 h): 9 g | A/G (24 h): 2.4 | ALP (24 h): 6419.2 IU/L | ALT (24 h): 31.2 IU/L | AST (24 h): 58 IU/L | BUN (24 h): 12.6 mg/dL | CRE (24 h): 0.7 mg/dL | Ca (24 h): 10.7 mg/dL | Cl (24 h): 99 meq/L | DBIL (24 h): 0.056 mg/dL | GLC (24 h): 180.6 mg/dL | IP (24 h): 8.6 mg/dL | K (24 h): 4.3 meq/L | LDH (24 h): 104.4 IU/L | Na (24 h): 140.2 meq/L | PL (24 h): 110.8 mg/dL | RALB (24 h): 3.9 g/dL | TBIL (24 h): 1.9 mg/dL | TC (24 h): 63.8 mg/dL | TG (24 h): 31.6 mg/dL | TP (24 h): 5.5 g/dL | gamma-GTP (24 h): 0.8 IU/L
